{"source": "patent US20170045513A1", "about": "“METHODS OF DIAGNOSING CELIAC DISEASE USING IP-10” (ImmusanT, Inc., priority 2014, published 2017)", "assay_type_in_all_cases": "cell-based, human", "key": {"[1]": {"test_system": "gluten-reactive T cells", "assay": "96-well plate whole blood cytokine release, IFNγ by MAGPIX multiplex bead assay", "details": "n = 8, blood after oral gluten challenge, individual peptides 5 μM (Peptide 2* of P14, Pepscan: 10 μg/mL (5.45 μM))"}, "[2]": {"test_system": "gluten-reactive T cells", "assay": "Cytokine release assays taken together (IFNγ ELISpot, whole blood IFNγ and IP-10, in-tube IFNγ ELISA)", "details": "blood collected after oral gluten challenge", "protocol": "Gluten peptide solutions for addition to whole blood were arranged according to standardized templates in sterile 96-well U-bottom plates (30 μL/well). Plates were sealed with adhesive ELISA plate cover slips before the plastic lid was replaced and being frozen at −80° C. Whole blood assay (WBA) “medium” (1% DMSO in 90% PBS and 9% normal saline), mitogen (PHA-L, Sigma-Aldrich #L2769; St Louis Mo.) 100 μg/ml in WBA medium, and CEF diluted to 10 μg/ml in PBS with a final concentration of 1% DMSO were frozen separately in sterile cryovials. 96-well plates and cryovials with frozen incubation solutions were shipped on dry ice to the clinical site where blood was collected and incubations performed. Solutions were thawed at room temperature for 10 min just before being added to whole blood. 96-well plates were thawed while being centrifuged at 300 g to avoid surface condensation. A multi-channel pipette was used to efficiently transfer 25 μL of peptide solutions from the original 96-well plate to corresponding wells in a fresh sterile 96-well U-bottom plate. Once incubation solutions had been added, 225 μL of whole blood was added to each well and the plate transferred to incubate for 24 h at 37° C. 5% CO2. […] Individual peptides were incubated at a final assay concentration of 51.1M. Final concentrations of individual peptides assessed in P3 was 0.05-50 μg/mL, and in P14 and P13 pools 0.025-25 μM. The P71 pool was tested at between 0.005-10 pg/mL, the highest tested concentration being the maximal possible not exceeding 0.1% DMSO. Peptide pools, mitogen, and medium only were assessed in triplicate wells, and on Day-6 individual peptides were assessed in duplicate wells. Incubations were terminated after 24 h, and 96-well plates centrifuged at 300 g for 10 min. A total of approximately 90 to 120 μL of plasma was removed from each well taking care to avoid red cell contamination, and transferred into corresponding wells of two further 96-well plates (one with 30 μL/well and the residual in the second plate). Plasmas were frozen at −80° C. and later shipped on dry ice to the central lab where IP-10 and IFNγ multiplex bead assays were performed according to manufacturer's instructions using 25 μL plasma per well (Milliplex® MAP Human Cytokine/Chemokine Magnetic Bead Panel #HCYTOMAG-60k-02; EMD Millipore Corp., Billerica, Mass. 01821) and analysed with the Luminex® MAGPIX® System xPONENT® software (Luminex Corporation, Austin Tex. 78727). Plasma cytokine levels for each assay condition were expressed as the mean analyte concentration of each of the three replicate incubations. Laboratory staff were unaware of the arrangement of peptide solutions incubated with during assay setup and plate counting.\nAliquots of PBS, P3 peptides diluted in PBS (final concentration in blood 3× 50 or CEF to a final concentration 1 μg/mL were prepared in sterile cryovials (0.11 mL/vial) and stored frozen (−80° C.) until immediately before use. P3, CEF and two PBS aliquots were drawn up in separate sterile 0.3 mL insulin syringes with attached 29G×½″ needle (Terumo, SS*30M2913; Elkton Md. 21921). P3, CEF and one PBS aliquot was injected through the stoppers of three separate QuantiFERON® NIL tubes already containing 1 mL blood, and one aliquot of PBS was injected into a QuantiFERON® MITOGEN tube already containing 1 mL blood. All four tubes containing blood and incubation solution were gently inverted ten-times and transferred to incubate at 37° C. 5% CO2. After for 24 h, tubes were centrifuged 300 g 10 min. Plasma was separated and equal volumes placed in two 1.5 mL cryovials. Frozen plasmas were transferred to the central lab where IFNγ levels were measured in triplicate 50 μL samples by ELISA (MABtech Human IFN-γ ELISA development kit HRP, 3420-1H-6; capture mAb 1-D1K). […]"}, "[3]": {"test_system": "gluten-reactive T cells", "assay": "96-well plate whole blood cytokine release, IP-10 by MAGPIX multiplex bead assay", "details": "for Percent of maximal response to individual gluten peptides, IP-10: after oral gluten challenge; for IP-10 WB MAGPIX % max Mean: n = 10, blood after oral gluten challenge, individual peptides 5 μM (Peptide 2* of P14, Pepscan: 10 μg/mL (5.45 μM))"}, "[4]": {"test_system": "gluten-reactive T cells", "assay": "Overnight IFNγ ELISpot assay with fresh PBMC", "details": "n = 5, blood after oral gluten challenge, individual peptides 5 μM (Peptide 2* of P14, Pepscan: 10 μg/mL (5.45 μM))", "protocol": "HLA-DQ2.5-positive celiac disease subjects on gluten-free diet were used in this study. Blood was collected immediately before and 6 days after commencing 3-day oral gluten challenge. Whole blood or PBMCs were incubated with pools or single peptides derived from gluten or recall antigens. IFNγ and IP-10 levels were measured in plasma from the whole blood that was incubated in 96-well plates with peptides or peptide pools. Plasma cytokine/chemokine levels were measured by MAGPIX® multiplex bead assay (IFNγ and IP-10) or by ELISA (IFNγ and IP-10), and PBMC separated from the same blood sample were incubated in overnight IFNγ ELISpot assays.\nOvernight IFNγ ELISpot assays (Human IFN-γ ELISpotPRO kit, transparent, ALP; Mabtech AB, #3420-2APT-10) were performed using PBMC freshly separated from heparinized blood diluted 1:1 in PBS with 2% fetal bovine serum (Stemcell Technologies #07905; Vancouver, BC, V5Z 1B3, Canada) overlaid on density gradient medium (Ficoll-Paque™ PLUS; GE Healthcare Lice Sciences #:17-1440-02) in SepMate™-50 tubes (Stemcell Technologies #15460). PBMC (8 million/mL) were resuspended in serum-free medium with gentamicin and phenol red (X-VIVO™15; Lonza, Walkersville Mass. 21793). PBMC (0.4 million/50 pt/well) and incubated with 50 μL 80% X-vivo15, 0.2% DMSO and 20% PBS in three triplicate wells (“medium only”), or with 50 μL PHA-L 20 μg/ml or peptide at 2× final concentration in 80% X-vivo15, 0.2% DMSO and 20% PBS. Peptide solutions to be added to individual ELISpot wells were prepared in 96-well U-bottom plates (60 pt/well) that were then sealed with adhesive ELISA plate cover slips before replacing the plastic lid and being frozen at −80° C. 96-well plates containing peptide solutions were thawed at room temperature for 10 min while being centrifuged at 300 g immediately prior to being added to ELISpot wells. Peptide pools and mitogen were assessed in triplicate wells, and individual peptides were assessed in duplicate wells. X-VIVO™15 (50 μL) was incubated with 80% X-vivo15, 0.2% DMSO and 20% PBS (50 μL) in triplicate wells (“no PBMC” control). A Zeiss automated ELISpot counter was used to determine spot forming units (SFU) per well (Zellnet Inc., Fort Lee, N J 07024). Laboratory staff were unaware of the arrangement of peptide solutions in ELISpot wells during assay setup and plate counting."}}, "note": "Non-standard residues stand in square brackets, D forms with d. pGlu = O=C1CC[C@@H](C(=O)O)N1", "data": [{"substance": "(pE)QPFPQPEQPFPWQP-amide ([pGlu]QPFPQPEQPFPWQP-NH2; SMILES NC(=O)CC[C@H](NC(=O)[C@H](Cc1c[nH]c2ccccc12)NC(=O)[C@@H]1CCCN1C(=O)[C@H](Cc1ccccc1)NC(=O)[C@@H]1CCCN1C(=O)[C@H](CCC(N)=O)NC(=O)[C@H](CCC(=O)O)NC(=O)[C@@H]1CCCN1C(=O)[C@H](CCC(N)=O)NC(=O)[C@@H]1CCCN1C(=O)[C@H](Cc1ccccc1)NC(=O)[C@@H]1CCCN1C(=O)[C@H](CCC(N)=O)NC(=O)[C@@H]1CCC(=O)N1)C(=O)N1CCC[C@H]1C(N)=O) [Peptide 2, two preparations tested separately: CSBio (5 μM) and Pepscan re-synthesis (10 μg/mL)]", "values": [{"measurement": "IFNγ WB MAGPIX % max Mean", "setting": "[1]", "result": 23, "unit": "% max"}, {"measurement": "IFNγ WB MAGPIX % max Mean", "setting": "[1]; listed as Peptide 2*", "result": 27, "unit": "% max"}, {"measurement": "activity relative to Peptide 14 in the cytokine release assays", "setting": "[2]", "result": "approximately one-half to one-fifth as active as Peptide 14"}, {"measurement": "Percent of maximal response to individual gluten peptides, IP-10", "setting": "[3]; Subject 3, Max. 9492 pg/mL", "result": "≥ 100 % of max"}, {"measurement": "Percent of maximal response to individual gluten peptides, IP-10", "setting": "[3]; Subject 4, Max. 9463 pg/mL", "result": "≥ 100 % of max"}, {"measurement": "IP-10 WB MAGPIX % max Mean", "setting": "[3]", "result": 43, "unit": "% max"}, {"measurement": "IP-10 WB MAGPIX % max Mean", "setting": "[3]; listed as Peptide 2*", "result": 49, "unit": "% max"}, {"measurement": "IFNγ ELISpot % max Mean", "setting": "[4]", "result": 19, "unit": "% max"}, {"measurement": "IFNγ ELISpot % max Mean", "setting": "[4]; listed as Peptide 2*", "result": 25, "unit": "% max"}]}]}
